Measured values as given in publication PMC7711741 (Journal of medicinal chemistry, 2015).

Tests used:
[1] = system: huPA-H99Y; test: Ki determination, chromogenic substrate S-2444; assay type: biochemical, human; settings: versus peptide 2
[2] = molecular target: murine uPA (Mus musculus, UniProt P06869); test: Ki determination, chromogenic substrate S-2444; assay type: biochemical; settings: for fold increase in Ki for muPA: versus peptide 2
[3] = molecular target: human PK (Homo sapiens, UniProt P03952); test: Ki determination, chromogenic substrate S-2302; assay type: biochemical; settings: versus mupain-1–16
Sequence of human PK (P03952 20-638): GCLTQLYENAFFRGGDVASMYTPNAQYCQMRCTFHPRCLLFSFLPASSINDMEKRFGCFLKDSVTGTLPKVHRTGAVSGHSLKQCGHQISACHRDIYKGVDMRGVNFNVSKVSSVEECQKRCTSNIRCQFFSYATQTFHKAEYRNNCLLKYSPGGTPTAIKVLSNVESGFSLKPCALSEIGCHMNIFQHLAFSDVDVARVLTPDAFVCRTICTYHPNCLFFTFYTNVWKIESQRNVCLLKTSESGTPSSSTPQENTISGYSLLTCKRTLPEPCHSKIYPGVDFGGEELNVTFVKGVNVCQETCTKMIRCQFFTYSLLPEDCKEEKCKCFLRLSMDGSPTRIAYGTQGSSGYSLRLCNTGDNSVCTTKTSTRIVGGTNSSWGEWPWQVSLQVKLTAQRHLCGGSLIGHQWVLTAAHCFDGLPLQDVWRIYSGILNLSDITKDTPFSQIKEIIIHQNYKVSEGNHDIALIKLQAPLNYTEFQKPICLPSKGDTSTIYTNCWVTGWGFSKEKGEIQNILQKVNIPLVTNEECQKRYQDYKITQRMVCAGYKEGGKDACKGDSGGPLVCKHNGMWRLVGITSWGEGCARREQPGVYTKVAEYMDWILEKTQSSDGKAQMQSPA

Sequence of murine uPA (P06869 21-433): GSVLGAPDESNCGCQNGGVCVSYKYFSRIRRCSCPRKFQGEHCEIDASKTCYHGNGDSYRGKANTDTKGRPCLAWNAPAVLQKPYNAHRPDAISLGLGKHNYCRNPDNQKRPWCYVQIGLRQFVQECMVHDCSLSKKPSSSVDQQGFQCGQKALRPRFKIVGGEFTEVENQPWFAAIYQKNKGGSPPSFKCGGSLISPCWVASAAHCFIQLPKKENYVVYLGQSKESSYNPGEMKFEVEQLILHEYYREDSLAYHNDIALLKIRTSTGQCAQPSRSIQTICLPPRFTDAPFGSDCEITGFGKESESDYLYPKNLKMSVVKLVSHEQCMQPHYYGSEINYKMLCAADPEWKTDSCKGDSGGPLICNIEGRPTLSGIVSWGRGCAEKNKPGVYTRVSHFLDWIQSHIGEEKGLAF

fold increase in Ki for huPA-H99Y [1] [fold]	fold increase in Ki for muPA [2] [fold]	fold weakened affinity to muPA ([2]; versus peptide 1)	Substance	fold lower Ki for inhibition of hPK [3] [fold]
100	100	–	CPAKS[L-3-(N-amidino-4-piperidyl)alanine]AL[KAc]C [peptide 4]	–
100	100	–	CPARS[L-3-(N-amidino-4-piperidyl)alanine]AL[KAc]C [peptide 3]	–
–	–	–	CPAYS[L-3-(N-amidino-4-piperidyl)alanine]-ALDC [peptide 1]	10
–	–	about 10 fold	CPAYS[L-3-(N-amidino-4-piperidyl)alanine]AL[KAc]C [peptide 2]	–
